From patent US20250154197A1, “LIPOLYTIC PEPTIDES” (FUNDACIÓ HOSPITAL UNIVERSITARI VALL D'HEBRON - INSTITUT DE …, priority 2021, published 2025) come the findings set out here.

Where no end group is shown, it is not given here. [ ]: non-standard residue; d: D form.

What all share (assay type): cell-based
The subject of one assay is 3T3-L1 mouse adipocytes. Description: Lipolytic activity: glycerol release in differentiated 3T3-L1 mouse adipocytes (12 h). The conditions noted are these: for Lipolysis Activity measured as Glycerol (μM) release in media: 3T3-L1 mouse adipocytes, 12 h. The procedure:
JCRB9014-A) from Tebu-Bio (Tebu-bio, Barcelona, Spain). Briefly, mouse adipocytes (3T3-L1 cells) were cultured in 48 well plates as described previously (Saez-Lopez et al., 2020). Adipocytes were differentiated using cell culture reagents purchased from Tebu-Bio and following the manufacturer's instructions. At day of differentiation cells were treated in duplicates with vehicle (DMSO), Caffeine (100 μg/ml), and each of the peptides at the specified doses in Table 6a below. At the end of the experiment (12 h), supernatants were collected and glycerol content was measured using a Glycerol Assay Kit (Sigma) following manufacturer's instructions.

For assay [1], the system named is differentiated human subcutaneous adipocytes. Kind of assay: Time course lipolytic activity: glycerol release at 120' and 240'. The conditions noted are these: for Lipolytic activity measured as glycerol release: 10 ug/ml, human subcutaneous adipocytes. The procedure: At the end of the experiment, supernatants were collected and glycerol content was measured using a Lipolysis Assay kit from Tebu-bio (LIP-1—NC) following the manufacturer's instructions.

Assay [2] deals with human subcutaneoous mature adipocytes. Kind of assay: Lipolytic activity: glycerol release in human adipocytes (Lipolysis Assay kit). The conditions noted are these: human subcutaneous mature adipocytes.

Take “TWDPEGVIFY [GP3L, comparative L-decapeptide; N-term NH2, C-term COOH, reference compound]”: the “Lipolysis Activity measured as Glycerol (μM) release in media” value (“Lipolysis Activity measured as Glycerol” below) in the assay with 3T3-L1 mouse adipocytes (1 μg/ml) was 230 µM; with 3T3-L1 mouse adipocytes (10 μg/ml), 250 µM; in the assay on 3T3-L1 mouse adipocytes (100 μg/ml), 360 µM. Moreover, the “Lipolytic activity measured as glycerol release” value (“Lipolytic activity measured” for short) in assay [1] (120 min, listed as SEQ ID NO: 2) is recorded as −0.5343 UM; in assay [1] (240 min, listed as SEQ ID NO: 2), 17.7363 UM.

“NDPEGVIY (H-[dN][dD][dP][dE]G[dV][dI][dY]-OH; SMILES CC[C@@H](C)[C@@H](NC(=O)[C@H](NC(=O)CNC(=O)[C@@H](CCC(=O)O)NC(=O)[C@H]1CCCN1C(=O)[C@@H](CC(=O)O)NC(=O)[C@H](N)CC(N)=O)C(C)C)C(=O)N[C@H](Cc1ccc(O)cc1)C(=O)O) [GP3D-DM6, N-term NH2, C-term COOH]”: the “Lipolysis Activity measured as Glycerol” value was 19.83 µM in assay [2] (25 μg/ml); 37.09 µM in assay [2] (50 μg/ml); 48.37 µM in assay [2] (75 μg/ml); 55.19 µM in assay [2] (100 μg/ml); 304 µM in the assay with 3T3-L1 mouse adipocytes (1 μg/ml); 405 µM in the assay on 3T3-L1 mouse adipocytes (100 μg/ml).

As to `Cn1c(=O)c2c(ncn2C)n(C)c1=O` [Caffeine], the “Lipolysis Activity measured as Glycerol” value worked out at 35.53 µM in assay [2] (100 μg/ml) and 297 µM with 3T3-L1 mouse adipocytes (100 μg/ml). Besides, the “lipolytic activity at 120'” value in assay [1] (120', 10 μg/ml) was “neither caffeine nor the comparative peptide, at the same dose, provided any significant activity at that time”. For the same molecule, the entries for the “Lipolytic activity measured” value in assay [1] (120 min) and in assay [1] (240 min) were −3.0856 UM and 17.1602 UM, respectively.

As to “Ac-TWDPEGVIFY (Ac-[dT][dW][dD][dP][dE]G[dV][dI][dF][dY]) [GP3D-Ac, N-term CH3CONH, C-term COOH]”, the “Lipolysis Activity measured as Glycerol” value in assay [2] (25 μg/ml) came to 16.56 µM; in assay [2] (50 μg/ml), 36.41 µM; in assay [2] (75 μg/ml), 43.36 µM; in assay [2] (100 μg/ml) it was 58.41 µM; in the assay with 3T3-L1 mouse adipocytes (1 μg/ml), 354 µM; in the assay with 3T3-L1 mouse adipocytes (10 μg/ml) it was 388 µM. For the same molecule, in the assay with 3T3-L1 mouse adipocytes (100 μg/ml), the “Lipolysis Activity measured as Glycerol” value was found to be 498 µM.

With “DPEGVIY (H-[dD][dP][dE]G[dV][dI][dY]-OH; SMILES CC[C@@H](C)[C@@H](NC(=O)[C@H](NC(=O)CNC(=O)[C@@H](CCC(=O)O)NC(=O)[C@H]1CCCN1C(=O)[C@H](N)CC(=O)O)C(C)C)C(=O)N[C@H](Cc1ccc(O)cc1)C(=O)O) [GP3D-7 I II IX, N-term NH2, C-term COOH]”, the “Lipolysis Activity measured as Glycerol” value is 19.68 µM in assay [2] (25 μg/ml); 34.01 µM in assay [2] (50 μg/ml); 46.62 µM in assay [2] (75 μg/ml); 56.08 µM in assay [2] (100 μg/ml); 417 µM with 3T3-L1 mouse adipocytes (1 μg/ml); 380 µM in the assay on 3T3-L1 mouse adipocytes (10 μg/ml). In addition, in the assay on 3T3-L1 mouse adipocytes (100 μg/ml), the “Lipolysis Activity measured as Glycerol” value was 346 µM.

In the case of “NDPEGLY (H-[dN][dD][dP][dE]G[dL][dY]-OH; SMILES CC(C)C[C@@H](NC(=O)CNC(=O)[C@@H](CCC(=O)O)NC(=O)[C@H]1CCCN1C(=O)[C@@H](CC(=O)O)NC(=O)[C@H](N)CC(N)=O)C(=O)N[C@H](Cc1ccc(O)cc1)C(=O)O) [GP3D-DM5, N-term NH2, C-term COOH]”, the “Lipolysis Activity measured as Glycerol” value was 21.84 µM in assay [2] (25 μg/ml); 39.18 µM in assay [2] (50 μg/ml); 47.07 µM in assay [2] (75 μg/ml); 55.12 µM in assay [2] (100 μg/ml); 326 µM in the assay on 3T3-L1 mouse adipocytes (100 μg/ml).

For “TWDPEGVIFY [GP3D] ([dT][dW][dD][dP][dE]G[dV][dI][dF][dY]) [N-term NH2, C-term COOH]”, the “Lipolysis Activity measured as Glycerol” value in the assay on 3T3-L1 mouse adipocytes (1 μg/ml) came to 538 µM; in the assay with 3T3-L1 mouse adipocytes (10 μg/ml), 574 µM; in the assay on 3T3-L1 mouse adipocytes (100 μg/ml), 580 µM. Moreover, the “increase in lipolytic activity compared to the L version” value with 3T3-L1 mouse adipocytes (D-decapeptide vs L version (SEQ ID NO: 2)) is recorded as “about 2 fold”. The “Lipolytic activity measured” value is recorded as 24.8964 UM in assay [1] (120 min, listed as SEQ ID NO: 3) and 90.1603 UM in assay [1] (240 min, listed as SEQ ID NO: 3). Besides, the “fold more efficient in inducing lipolysis vs caffeine or SEQ ID NO:2” value in assay [1] (time 120', 10 μg/ml) is “more than 24 fold”; in assay [1] (time 240', 10 μg/ml), “more than 5 fold”.

Regarding “WDPEGV (H-[dW][dD][dP][dE]G[dV]-OH; SMILES CC(C)[C@@H](NC(=O)CNC(=O)[C@@H](CCC(=O)O)NC(=O)[C@H]1CCCN1C(=O)[C@@H](CC(=O)O)NC(=O)[C@H](N)Cc1c[nH]c2ccccc12)C(=O)O) [GP3D-6 I VIII IX X, N-term NH2, C-term COOH]”, the “Lipolysis Activity measured as Glycerol” value in assay [2] (25 μg/ml) was 18.07 µM; in assay [2] (50 μg/ml), 32.53 µM; in assay [2] (75 μg/ml) it was 47.82 µM; in assay [2] (100 μg/ml) it was 51.90 µM; in the assay with 3T3-L1 mouse adipocytes (100 μg/ml), 360 µM.

On to “WDPEGLY (H-[dW][dD][dP][dE]G[dL][dY]-OH; SMILES CC(C)C[C@@H](NC(=O)CNC(=O)[C@@H](CCC(=O)O)NC(=O)[C@H]1CCCN1C(=O)[C@@H](CC(=O)O)NC(=O)[C@H](N)Cc1c[nH]c2ccccc12)C(=O)N[C@H](Cc1ccc(O)cc1)C(=O)O) [GP3D-DM1, N-term NH2, C-term COOH]”, for which the “Lipolysis Activity measured as Glycerol” value worked out at 15.94 µM in assay [2] (25 μg/ml); 32.98 µM in assay [2] (50 μg/ml); 37.78 µM in assay [2] (75 μg/ml); 40.28 µM in assay [2] (100 μg/ml); 356 µM in the assay on 3T3-L1 mouse adipocytes (1 μg/ml); 477 µM in the assay with 3T3-L1 mouse adipocytes (10 μg/ml). In the assay with 3T3-L1 mouse adipocytes (100 μg/ml), the “Lipolysis Activity measured as Glycerol” value came out at 324 µM.

In the case of “DPEGLFY (H-[dD][dP][dE]G[dL][dF][dY]-OH; SMILES CC(C)C[C@@H](NC(=O)CNC(=O)[C@@H](CCC(=O)O)NC(=O)[C@H]1CCCN1C(=O)[C@H](N)CC(=O)O)C(=O)N[C@H](Cc1ccccc1)C(=O)N[C@H](Cc1ccc(O)cc1)C(=O)O) [GP3D-DM2, N-term NH2, C-term COOH]”, the “Lipolysis Activity measured as Glycerol” value was determined as 15.77 µM in assay [2] (25 μg/ml); 34.83 µM in assay [2] (50 μg/ml); 48.40 µM in assay [2] (75 μg/ml); 52.24 µM in assay [2] (100 μg/ml); 303 µM with 3T3-L1 mouse adipocytes (1 μg/ml).
